For orientation: Ki means the dissociation constant of the complex between target and ligand, obtained from inhibition or displacement. A high value points to a looser hold on the target.

In assay [1] the target is T1, hCA I (Homo sapiens, UniProt P00915).
T1 construct: made in house
As to the kind of experiment: CA inhibition, stopped-flow CO2 hydrase assay. Type of assay: biochemical. Conditions: stopped-flow technique; incubation time 6 h; mean of 3 assays. As for the experimental part: (§1) Four hCA isoforms were used in this assay: the cytosolic hCA I and II and the tumor-associated transmembrane hCA IX and XII isoforms. Acetazolamide (AAZ) was used as a standard inhibitor.
(§2) An SX.18MV-R Applied Photophysics (Oxford, UK) stopped-flow instrument has been used to assay the catalytic/inhibition of various CA isozymes. […] Saturated CO2 solutions in water at 25 °C were used as substrate. Stock solutions of inhibitors were prepared at a concentration of 10 μM (in DMSO-water 1:1, v/v) and dilutions up to 0.01 nM were carried out with the assay buffer mentioned above. […] Inhibitor and enzyme solutions were preincubated together for 6 h at room temperature prior to assay in order to allow for the formation of the E-I complex. […] The inhibition constants were obtained by non-linear least-squares methods using the Cheng–Prusoff equation, as reported earlier, and represent the mean from at least three different determinations.

In assay [2] the target is T2, hCA II (Homo sapiens, UniProt P00918).
T2 construct: made in house
As to the kind of experiment: CA inhibition, stopped-flow CO2 hydrase assay. Type of assay: biochemical. Conditions: stopped-flow technique; incubation time 6 h; mean of 3 assays. As for the experimental part:
as §1, §2

The target of assay [3] is T3, hCA IX (Homo sapiens, UniProt Q16790).
T3 construct: made in house
The experiment in a line: CA inhibition, stopped-flow CO2 hydrase assay. Type of assay: biochemical. Conditions: stopped-flow technique; incubation time 6 h; mean of 3 assays. How it is done:
as §1, §2

The target in assay [4] is T4, hCA XII (Homo sapiens, UniProt O43570).
T4 construct: made in house
T4 sequence (O43570 25-354): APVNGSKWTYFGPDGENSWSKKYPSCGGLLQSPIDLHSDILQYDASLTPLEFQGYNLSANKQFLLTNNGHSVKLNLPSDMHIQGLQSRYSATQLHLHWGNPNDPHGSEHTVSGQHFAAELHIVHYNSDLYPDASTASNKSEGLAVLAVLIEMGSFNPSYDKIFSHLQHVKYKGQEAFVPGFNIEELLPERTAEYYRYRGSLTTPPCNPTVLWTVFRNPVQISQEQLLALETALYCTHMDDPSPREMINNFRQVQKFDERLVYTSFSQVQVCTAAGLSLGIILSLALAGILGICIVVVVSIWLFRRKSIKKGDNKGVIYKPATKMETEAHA
The experiment in a line: CA inhibition, stopped-flow CO2 hydrase assay. Type of assay: biochemical. Conditions: stopped-flow technique; incubation time 6 h; mean of 3 assays. As for the experimental part: as §1, §2

The subject of assay [5] is K562/DOX cells. As to the kind of experiment: Doxorubicin cytotoxicity enhancement assay (MTT). Type of assay: cell-based, human. Conditions: 72 h. As for the experimental part: K562 is a highly undifferentiated erythroleukemia cell line. The doxorubicin-resistant K562/DOX cells overexpress almost exclusively the transporter membrane protein P-gp.
K562/DOX cells were incubated for 72 h with different concentrations of doxorubicin in combination with 1 or 3 µM of all compounds. […] HT29, A549, HT29/DOX and A549/DOX cells were incubated for 48 h with 5 µM doxorubicin, alone or in combination with 1 or 3 µM of selected compounds. Cell viability of the cell lines was measured by the MTT assay, using a Synergy HT microplate spectrofluorometer (Bio-Tek Instruments, Winooski, VT, USA). The absorbance of untreated cells was considered 100%; results were expressed as a percentage of viable treated cells versus the control untreated cells.

T1 sequence (P00915 whole entry): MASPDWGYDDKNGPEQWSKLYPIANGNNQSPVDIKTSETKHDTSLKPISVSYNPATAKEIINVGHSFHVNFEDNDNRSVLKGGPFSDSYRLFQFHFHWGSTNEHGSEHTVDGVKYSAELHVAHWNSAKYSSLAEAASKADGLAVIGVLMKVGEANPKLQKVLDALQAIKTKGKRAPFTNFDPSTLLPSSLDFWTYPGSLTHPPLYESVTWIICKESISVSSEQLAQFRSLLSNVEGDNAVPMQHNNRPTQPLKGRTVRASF

With `COc1cc(/C=C/CN2CCN(CCCCOc3ccc4c(C)cc(=O)oc4c3)CC2)cc(OC)c1OC` [Compound 6, (E)-4-Methyl-7-(4-(4-(3-(3,4,5-trimethoxyphenyl)allyl)piperazin-1-yl)butoxy)-2H-chromen-2-one], the Ki in assay [1] was greater than 10000 nM; in assay [2], greater than 10000 nM; in assay [3] it was 58.9 nM; in assay [4] it was 44.8 nM. The “RF (Reversal Fold: IC50 of doxorubicin alone / in presence of modulator)” value in assay [5] (compound at 1 µM) was 6.3; in assay [5] (compound at 3 µM), 6.7.

Take `COc1cc(CN2CCN(CCCOc3ccc4oc(=O)cc(C)c4c3)CC2)cc(OC)c1OC` [Compound 23, 4-Methyl-6-(3-(4-(3,4,5-trimethoxybenzyl)piperazin-1-yl)propoxy)-2H-chromen-2-one]: the Ki is greater than 10000 nM in assay [1], greater than 10000 nM in assay [2], 242 nM in assay [3] and 304 nM in assay [4]. Moreover, the “RF (Reversal Fold: IC50 of doxorubicin alone / in presence of modulator)” value in assay [5] (compound at 1 µM) was found to be 1.6; in assay [5] (compound at 3 µM), 1.8.

Regarding `COc1ccc(C(CCCN2CCN(CCCCOc3ccc4c(C)cc(=O)oc4c3)CC2)c2ccc(OC)cc2)cc1` [Compound 30, 7-(4-(4-(4,4-Bis(4-methoxyphenyl)butyl)piperazin-1-yl)butoxy)-4-methyl-2H-chromen-2-one], the Ki in assay [1] is greater than 10000 nM; in assay [2], greater than 10000 nM; in assay [3], 124 nM; in assay [4], 82.4 nM. For the same compound, in assay [5] (compound at 1 µM), the “RF (Reversal Fold: IC50 of doxorubicin alone / in presence of modulator)” value is 7.7.

As to `COc1ccc(C(CCCN2CCN(CCOc3ccc4oc(=O)cc(C)c4c3)CC2)c2ccc(OC)cc2)cc1` [Compound 34, 6-(2-(4-(4,4-Bis(4-methoxyphenyl)butyl)piperazin-1-yl)ethoxy)-4-methyl-2H-chromen-2-one], the Ki was greater than 10000 nM in assay [1], greater than 10000 nM in assay [2], 666 nM in assay [3] and 851 nM in assay [4]. In addition, the “RF (Reversal Fold: IC50 of doxorubicin alone / in presence of modulator)” value was 5.7 in assay [5] (compound at 1 µM) and 14.3 in assay [5] (compound at 3 µM).

Take `COc1cc(CN2CCN(CCCOc3ccc4oc(=O)ccc4c3)CC2)cc(OC)c1OC` [Compound 20, 6-(3-(4-(3,4,5-Trimethoxybenzyl)piperazin-1-yl)propoxy)-2H-chromen-2-one]: the Ki in assay [1] is greater than 10000 nM; in assay [2], greater than 10000 nM; in assay [3], 72 nM; in assay [4], 22.4 nM. The “RF (Reversal Fold: IC50 of doxorubicin alone / in presence of modulator)” value is recorded as 2.3 in assay [5] (compound at 1 µM) and 2.4 in assay [5] (compound at 3 µM).

As for `COc1cc(CN2CCN(CCCCOc3ccc4oc(=O)ccc4c3)CC2)cc(OC)c1OC` [Compound 21, 6-(4-(4-(3,4,5-Trimethoxybenzyl)piperazin-1-yl)butoxy)-2H-chromen-2-one], the Ki was greater than 10000 nM in assay [1], greater than 10000 nM in assay [2], 50.3 nM in assay [3] and 15.9 nM in assay [4]. The “RF (Reversal Fold: IC50 of doxorubicin alone / in presence of modulator)” value in assay [5] (compound at 1 µM) was determined as 3.9; in assay [5] (compound at 3 µM) it was 4.1.

Turning to `COc1cc(/C=C/CN2CCN(CCCOc3ccc4oc(=O)cc(C)c4c3)CC2)cc(OC)c1OC` [Compound 11, (E)-4-Methyl-6-(3-(4-(3-(3,4,5-trimethoxyphenyl)allyl)piperazin-1-yl)propoxy)-2H-chromen-2-one], the inhibitory constant (Ki) was greater than 10000 nM in assay [1], greater than 10000 nM in assay [2], 302 nM in assay [3] and 441 nM in assay [4]. Also, the “RF (Reversal Fold: IC50 of doxorubicin alone / in presence of modulator)” value in assay [5] (compound at 1 µM) is given as 2.4; in assay [5] (compound at 3 µM), 4.1.

As for `COc1cc(CN2CCN(CCOc3ccc4c(C)cc(=O)oc4c3)CC2)cc(OC)c1OC` [Compound 16, 4-Methyl-7-(2-(4-(3,4,5-trimethoxybenzyl)piperazin-1-yl)ethoxy)-2H-chromen-2-one], the Ki was greater than 10000 nM in assay [1], greater than 10000 nM in assay [2], 8.2 nM in assay [3] and 51.9 nM in assay [4]. The “RF (Reversal Fold: IC50 of doxorubicin alone / in presence of modulator)” value in assay [5] (compound at 1 µM) amounted to 1.0; in assay [5] (compound at 3 µM) it was 1.4.

With `COc1ccc(C(CCCN2CCN(CCOc3ccc4oc(=O)ccc4c3)CC2)c2ccc(OC)cc2)cc1` [Compound 31, 6-(2-(4-(4,4-Bis(4-methoxyphenyl)butyl)piperazin-1-yl)ethoxy)-2H-chromen-2-one], the Ki in assay [1] is greater than 10000 nM; in assay [2], greater than 10000 nM; in assay [3], 115 nM; in assay [4] it was 90.7 nM. Also, the “RF (Reversal Fold: IC50 of doxorubicin alone / in presence of modulator)” value in assay [5] (compound at 1 µM) came to 3.0; in assay [5] (compound at 3 µM), 11.4.

For `COc1cc(/C=C/CN2CCN(CCCCOc3ccc4ccc(=O)oc4c3)CC2)cc(OC)c1OC` [Compound 3, (E)-7-(4-(4-(3-(3,4,5-Trimethoxyphenyl)allyl)piperazin-1-yl)butoxy)-2H-chromen-2-one], the inhibition constant Ki is greater than 10000 nM in assay [1], greater than 10000 nM in assay [2], 82 nM in assay [3] and 34.6 nM in assay [4]. The entries for the “RF (Reversal Fold: IC50 of doxorubicin alone / in presence of modulator)” value in assay [5] (compound at 1 µM) and in assay [5] (compound at 3 µM) were 3.1 and 3.7, respectively.

On to `COc1cc(CN2CCN(CCOc3ccc4oc(=O)cc(C)c4c3)CC2)cc(OC)c1OC` [Compound 22, 4-Methyl-6-(2-(4-(3,4,5-trimethoxybenzyl)piperazin-1-yl)ethoxy)-2H-chromen-2-one], for which the Ki in assay [1] is greater than 10000 nM; in assay [2], greater than 10000 nM; in assay [3], 409 nM; in assay [4], 229 nM. Further, the “RF (Reversal Fold: IC50 of doxorubicin alone / in presence of modulator)” value in assay [5] (compound at 1 µM) is reported as 2.8; in assay [5] (compound at 3 µM), 2.7.

For `COc1cc(CN2CCN(CCCCOc3ccc4oc(=O)cc(C)c4c3)CC2)cc(OC)c1OC` [Compound 24, 4-Methyl-6-(4-(4-(3,4,5-trimethoxybenzyl)piperazin-1-yl)butoxy)-2H-chromen-2-one], the Ki was greater than 10000 nM in assay [1], greater than 10000 nM in assay [2], 205 nM in assay [3] and 99.5 nM in assay [4]. For the same compound, the figures for the “RF (Reversal Fold: IC50 of doxorubicin alone / in presence of modulator)” value in assay [5] (compound at 1 µM) and in assay [5] (compound at 3 µM) were 1.4 and 2.5, respectively.

As for `COc1ccc(C(CCCN2CCN(CCCOc3ccc4ccc(=O)oc4c3)CC2)c2ccc(OC)cc2)cc1` [Compound 26, 7-(3-(4-(4,4-Bis(4-methoxyphenyl)butyl)piperazin-1-yl)propoxy)-2H-chromen-2-one], the Ki in assay [1] is greater than 10000 nM; in assay [2] it was greater than 10000 nM; in assay [3], 153 nM; in assay [4] it was 115 nM. Further, the “RF (Reversal Fold: IC50 of doxorubicin alone / in presence of modulator)” value in assay [5] (compound at 1 µM) was determined as 5.5; in assay [5] (compound at 3 µM), 17.3.

Regarding `COc1cc(/C=C/CN2CCN(CCOc3ccc4oc(=O)cc(C)c4c3)CC2)cc(OC)c1OC` [Compound 10, (E)-4-Methyl-6-(2-(4-(3-(3,4,5-trimethoxyphenyl)allyl)piperazin-1-yl)ethoxy)-2H-chromen-2-one], the Ki is greater than 10000 nM in assay [1], greater than 10000 nM in assay [2], 360 nM in assay [3] and 422 nM in assay [4]. Also, the “RF (Reversal Fold: IC50 of doxorubicin alone / in presence of modulator)” value amounted to 1.0 in assay [5] (compound at 1 µM) and 1.4 in assay [5] (compound at 3 µM).

For the compound `COc1cc(CN2CCN(CCCCOc3ccc4c(C)cc(=O)oc4c3)CC2)cc(OC)c1OC` [Compound 18, 4-Methyl-7-(4-(4-(3,4,5-trimethoxybenzyl)piperazin-1-yl)butoxy)-2H-chromen-2-one], the inhibition constant (Ki) in assay [1] is greater than 10000 nM; in assay [2] it was greater than 10000 nM; in assay [3], 28.5 nM; in assay [4] it was 72.1 nM. The “RF (Reversal Fold: IC50 of doxorubicin alone / in presence of modulator)” value was 1.9 in assay [5] (compound at 1 µM) and 3.2 in assay [5] (compound at 3 µM).

Regarding `COc1ccc(C(CCCN2CCN(CCOc3ccc4c(C)cc(=O)oc4c3)CC2)c2ccc(OC)cc2)cc1` [Compound 28, 7-(2-(4-(4,4-Bis(4-methoxyphenyl)butyl)piperazin-1-yl)ethoxy)-4-methyl-2H-chromen-2-one], the Ki in assay [1] was greater than 10000 nM; in assay [2] it was greater than 10000 nM; in assay [3], 135 nM; in assay [4], 103 nM.

Consider `COc1cc(CN2CCN(CCCOc3ccc4c(C)cc(=O)oc4c3)CC2)cc(OC)c1OC` [Compound 17, 4-Methyl-7-(3-(4-(3,4,5-trimethoxybenzyl)piperazin-1-yl)propoxy)-2H-chromen-2-one], for which the Ki was greater than 10000 nM in assay [1], greater than 10000 nM in assay [2], 16.1 nM in assay [3] and 60.8 nM in assay [4]. The “RF (Reversal Fold: IC50 of doxorubicin alone / in presence of modulator)” value in assay [5] (compound at 1 µM) worked out at 2.6; in assay [5] (compound at 3 µM), 2.1.
